The source of these data is patent publication US20240083886A1, “HETEROCYCLIC GLP-1 AGONISTS” (Gasherbrum Bio, Inc., priority 2020, published 2024).

GLP-1 Receptor, sequence (P43220 24-463, species assumed): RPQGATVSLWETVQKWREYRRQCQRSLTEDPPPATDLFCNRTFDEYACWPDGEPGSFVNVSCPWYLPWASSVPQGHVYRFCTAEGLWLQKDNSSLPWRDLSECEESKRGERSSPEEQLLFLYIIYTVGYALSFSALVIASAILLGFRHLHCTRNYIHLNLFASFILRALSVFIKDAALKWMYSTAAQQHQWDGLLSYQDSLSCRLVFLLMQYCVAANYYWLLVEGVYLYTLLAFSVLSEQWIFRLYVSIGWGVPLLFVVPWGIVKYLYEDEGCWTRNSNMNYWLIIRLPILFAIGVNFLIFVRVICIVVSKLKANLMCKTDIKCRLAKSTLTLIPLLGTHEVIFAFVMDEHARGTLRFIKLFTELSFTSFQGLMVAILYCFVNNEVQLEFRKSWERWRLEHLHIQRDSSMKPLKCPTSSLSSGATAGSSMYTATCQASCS

The first test has as its target GLP-1 Receptor (Homo sapiens, UniProt P43220). In words: GLP-1R agonist cAMP stimulation assay. It is filed as cell-based.
Conditions: not given
As to the method: Activation of GLP-1 receptor is known to stimulate cyclic AMP (cAMP) production in cells which indicates primary coupling to the Gαs subunit of the G protein heterotrimeric complex.
To optimize functional activity directed toward Gαs coupling, a HEK293/CRE-Luc cell line developed by HDB stably expressing the GLP-1 Receptor was used. 200× concentration of compound working solutions were prepared (Agilent Technologies Bravo) with ½ log serial dilution in 384-well Echo LDV plate (Labcyte, Cat #LP-0200). 50 nL/well 200× concentration of compound working solutions were moved to 384-well white low volume plate (Greiner, Cat #784075) using Labcyte ECHO550. 1×10^5 cells/mL HEK293/GLP1R/CRE-LUC(HD Biosciences) cell suspensions prepared with assay buffer[DPBS containing 0.5 mM IBMX(Sigma, Cat #15879) and 0.1% BSA (GENVIEW, Cat #FA016-100 g)], 10 uL cell suspensions were added to each well of previous generated assay plate which already contains 50 nl compound at 200×concentration using ThermoFisher Multidrop Combi (1000 cells/well). Seal the plate and incubate at 37° C. with 5% CO2 for 30 min.
After incubation the cAMP assay signal was generated using cAMP dynamic 2 Kit (Cisbio). 5 μL cAMP-d2 working solution was added to each well, followed with 5 μL Anti-cAMP antibody-cryptate working solution added to each well using ThermoFisher Multidrop Combi. Incubate at room temperature for 1 hour protected from light. Read the fluorescence at 665 and 615 nm with Reader PerkinElmer EnVision.
% Activity=100%×(mean RLU of test sample−mean RLU of vehicle control)/(mean RLU of MAX control−mean RLU of vehicle control))
In general, EC50 refers to the midpoint of the concentration-response curve. In turn, `FC(F)(F)c1nnc(-c2cc3nc(CN4CCC(Oc5ccnc(Cc6ccc(Cl)cc6)n5)CC4)n(C[C@@H]4CCO4)c3cn2)[nH]1` [Compound 150a, 2-[(4-chlorophenyl)methyl]-4-({1-[(3-{[(2S)-oxetan-2-yl]methyl}-6-[5-(trifluoromethyl)-4H-1,2,4-triazol-3-yl]-3H-imidazo[4,5-c]pyridin-2-yl)methyl]piperidin-4-yl}oxy)pyrimidine] showed an EC50 of 36 pM.
The compound `Cc1nnc(-c2cnc3c(c2)nc(CN2CCC(Oc4nc(Cc5ccc(Cl)cc5)ncc4F)CC2)n3C[C@@H]2CCO2)[nH]1` [Compound 162a, 2-[(4-chlorophenyl)methyl]-5-fluoro-4-[(1-{[6-(5-methyl-4H-1,2,4-triazol-3-yl)-3-{[(2S)-oxetan-2-yl]methyl}-3H-imidazo[4,5-b]pyridin-2-yl]methyl}piperidin-4-yl)oxy]pyrimidine] gave an EC50 of 2900 pM.
For `Cc1nnc(-c2cc3nc(CN4CCC(Oc5nc(Cc6ccc(Cl)cc6)ncc5F)CC4)n(C[C@@H]4CCO4)c3cn2)[nH]1` [Compound 163a, 2-[(4-chlorophenyl)methyl]-5-fluoro-4-[(1-{[6-(5-methyl-4H-1,2,4-triazol-3-yl)-3-{[(2S)-oxetan-2-yl]methyl}-3H-imidazo[4,5-c]pyridin-2-yl]methyl}piperidin-4-yl)oxy]pyrimidine], a half-maximal effect (EC50) was put at 250 pM.
Compound `Fc1cc(Cl)ccc1Cc1nccc(OC2CCN(Cc3nc4cc(-c5nnc[nH]5)ncc4n3C[C@@H]3CCO3)CC2)n1` [Compound 166a, 2-[(4-chloro-2-fluorophenyl)methyl]-4-({1-[(3-{[(2S)-oxetan-2-yl]methyl}-6-(4H-1,2,4-triazol-3-yl)-3H-imidazo[4,5-c]pyridin-2-yl)methyl]piperidin-4-yl}oxy)pyrimidine] gave an EC50 of 1800 pM.
Same read-out and setting: the same measure for `Fc1cc(Cl)ccc1Cc1ncc(F)c(OC2CCN(Cc3nc4cc(-c5nnc[nH]5)ncc4n3C[C@@H]3CCO3)CC2)n1` [Compound 169a, 2-[(4-chloro-2-fluorophenyl)methyl]-5-fluoro-4-({1-[(3-{[(2S)-oxetan-2-yl]methyl}-6-(4H-1,2,4-triazol-3-yl)-3H-imidazo[4,5-c]pyridin-2-yl)methyl]piperidin-4-yl}oxy)pyrimidine]: 1500 pM.
For `Cc1nnc(-c2cc3nc(CN4CCC(Oc5nc(Cc6ccc(Cl)cc6F)ncc5F)CC4)n(C[C@@H]4CCO4)c3cn2)[nH]1` [Compound 170a, 2-[(4-chloro-2-fluorophenyl)methyl]-5-fluoro-4-[(1-{[6-(5-methyl-4H-1,2,4-triazol-3-yl)-3-{[(2S)-oxetan-2-yl]methyl}-3H-imidazo[4,5-c]pyridin-2-yl]methyl}piperidin-4-yl)oxy]pyrimidine], the response was half-maximal at 130 pM (EC50).

Staying with this test, now noted: HEK293/GLP1R/CRE-LUC cells, cAMP dynamic 2 Kit (Cisbio), 30 min incubation at 37° C.; read-out: EC50.
As to `Fc1cnc(Cc2ccc(Cl)cc2)nc1OC1CCN(Cc2nc3cc(-c4nnc(C(F)(F)F)[nH]4)ncc3n2C[C@@H]2CCO2)CC1` [Compound 149a, 2-[(4-chlorophenyl)methyl]-5-fluoro-4-({1-[(3-{[(2S)-oxetan-2-yl]methyl}-6-[5-(trifluoromethyl)-4H-1,2,4-triazol-3-yl]-3H-imidazo[4,5-c]pyridin-2-yl)methyl]piperidin-4-yl}oxy)pyrimidine], the EC50 is 56 pM.
Regarding `Clc1ccc(Cc2nccc(OC3CCN(Cc4nc5cc(-c6nnn[nH]6)ccc5n4Cc4cn[nH]c4)CC3)n2)cc1` [Compound 153, 2-{[4-({2-[(4-chlorophenyl)methyl]pyrimidin-4-yl}oxy)piperidin-1-yl]methyl}-1-[(1H-pyrazol-4-yl)methyl]-5-(1H-1,2,3,4-tetrazol-5-yl)-1H-1,3-benzodiazole], the EC50 stood at 180 pM.
Regarding `N#CC1(Cn2c(CN3CCC(Oc4ccnc(Cc5ccc(Cl)cc5)n4)CC3)nc3cc(-c4noc(=O)[nH]4)ccc32)CC1` [Compound 155, 1-[(2-{[4-({2-[(4-chlorophenyl)methyl]pyrimidin-4-yl}oxy)piperidin-1-yl]methyl}-5-(5-oxo-4,5-dihydro-1,2,4-oxadiazol-3-yl)-1H-1,3-benzodiazol-1-yl)methyl]cyclopropane-1-carbonitrile], the EC50 is 320 pM.
Regarding `N#CC1(Cn2c(CN3CCC(Oc4ccnc(Cc5ccc(Cl)cc5)n4)CC3)nc3cc(-c4nnc(C(F)(F)F)[nH]4)ccc32)CC1` [Compound 157, 1-[(2-{[4-({2-[(4-chlorophenyl)methyl]pyrimidin-4-yl}oxy)piperidin-1-yl]methyl}-5-[5-(trifluoromethyl)-4H-1,2,4-triazol-3-yl]-1H-1,3-benzodiazol-1-yl)methyl]cyclopropane-1-carbonitrile], the EC50 stood at 1100 pM.
`CC(=O)Nc1ccc2c(c1)nc(CN1CCC(Oc3cccc(Cc4ccc(Cl)cc4F)n3)CC1)n2C[C@@H]1CCO1` [Compound 160a]: the EC50 was 12200 pM.
Still for that read-out and setting: under `Fc1cc(Cl)ccc1Cc1ccc(F)c(OC2CCN(Cc3nc4cc(-c5nnc(C(F)(F)F)[nH]5)ncc4n3C[C@@H]3CCO3)CC2)n1` [Compound 164a, 6-[(4-chloro-2-fluorophenyl)methyl]-3-fluoro-2-({1-[(3-{[(2S)-oxetan-2-yl]methyl}-6-[5-(trifluoromethyl)-4H-1,2,4-triazol-3-yl]-3H-imidazo[4,5-c]pyridin-2-yl)methyl]piperidin-4-yl}oxy)pyridine] stands 350 pM; under `O=C(O)c1ccc2c(c1)nc(CN1CCC(Oc3nc(Cc4ccc(Cl)cc4F)ncc3F)CC1)n2C[C@@H]1CCO1` [Compound 165a, 2-{[4-({2-[(4-chloro-2-fluorophenyl)methyl]-5-fluoropyrimidin-4-yl}oxy)piperidin-1-yl]methyl}-1-{[(2S)-oxetan-2-yl]methyl}-1H-1,3-benzodiazole-5-carboxylic acid], 12000 pM; under `O=c1[nH]c(-c2cc3nc(CN4CCC(Oc5ccnc(Cc6ccc(Cl)cc6F)n5)CC4)n(C[C@@H]4CCO4)c3cn2)no1` [Compound 167a, 3-(2-{[4-({2-[(4-chloro-2-fluorophenyl)methyl]pyrimidin-4-yl}oxy)piperidin-1-yl]methyl}-3-{[(2S)-oxetan-2-yl]methyl}-3H-imidazo[4,5-c]pyridin-6-yl)-4,5-dihydro-1,2,4-oxadiazol-5-one], 230 pM.
As to `Fc1cc(Cl)ccc1Cc1ncc(F)c(OC2CCN(Cc3nc4cc(-c5nnc(C(F)(F)F)[nH]5)ncc4n3C[C@@H]3CCO3)CC2)n1` [Compound 168a, 2-[(4-chloro-2-fluorophenyl)methyl]-5-fluoro-4-({1-[(3-{[(2S)-oxetan-2-yl]methyl}-6-[5-(trifluoromethyl)-4H-1,2,4-triazol-3-yl]-3H-imidazo[4,5-c]pyridin-2-yl)methyl]piperidin-4-yl}oxy)pyrimidine], the EC50 amounted to 81 pM.
Turning to `O=c1[nH]c(-c2cc3nc(CN4CCC(Oc5nc(Cc6ccc(Cl)cc6F)ncc5F)CC4)n(C[C@@H]4CCO4)c3cn2)no1` [Compound 171a, 3-(2-{[4-({2-[(4-chloro-2-fluorophenyl)methyl]-5-fluoropyrimidin-4-yl}oxy)piperidin-1-yl]methyl}-3-{[(2S)-oxetan-2-yl]methyl}-3H-imidazo[4,5-c]pyridin-6-yl)-4,5-dihydro-1,2,4-oxadiazol-5-one], the EC50 was 170 pM.
Consider `O=c1[nH]c(-c2ccc3c(c2)nc(C[C@H]2CC[C@H](Oc4nc(Cc5ccc(Cl)cc5)ncc4F)CC2)n3C[C@@H]2CCO2)no1` [Compound 172a, 3-(1-{[(2S)-oxetan-2-yl]methyl}-2-{[(1r,4r)-4-({2-[(4-chlorophenyl)methyl]-5-fluoropyrimidin-4-yl}oxy)cyclohexyl]methyl}-1H-1,3-benzodiazol-5-yl)-4,5-dihydro-1,2,4-oxadiazol-5-one], for which the EC50 worked out at 1800 pM.
